Source: patent US6825206B1 (priority 2000, dated 2004)

Legend:
[1] = biological target: T1, camptothecin-topo I-DNA complex (Homo sapiens, UniProt P11387); type: biochemical; settings: after addition of NaCl; FIG. 5
T1 sequence (P11387 1-765): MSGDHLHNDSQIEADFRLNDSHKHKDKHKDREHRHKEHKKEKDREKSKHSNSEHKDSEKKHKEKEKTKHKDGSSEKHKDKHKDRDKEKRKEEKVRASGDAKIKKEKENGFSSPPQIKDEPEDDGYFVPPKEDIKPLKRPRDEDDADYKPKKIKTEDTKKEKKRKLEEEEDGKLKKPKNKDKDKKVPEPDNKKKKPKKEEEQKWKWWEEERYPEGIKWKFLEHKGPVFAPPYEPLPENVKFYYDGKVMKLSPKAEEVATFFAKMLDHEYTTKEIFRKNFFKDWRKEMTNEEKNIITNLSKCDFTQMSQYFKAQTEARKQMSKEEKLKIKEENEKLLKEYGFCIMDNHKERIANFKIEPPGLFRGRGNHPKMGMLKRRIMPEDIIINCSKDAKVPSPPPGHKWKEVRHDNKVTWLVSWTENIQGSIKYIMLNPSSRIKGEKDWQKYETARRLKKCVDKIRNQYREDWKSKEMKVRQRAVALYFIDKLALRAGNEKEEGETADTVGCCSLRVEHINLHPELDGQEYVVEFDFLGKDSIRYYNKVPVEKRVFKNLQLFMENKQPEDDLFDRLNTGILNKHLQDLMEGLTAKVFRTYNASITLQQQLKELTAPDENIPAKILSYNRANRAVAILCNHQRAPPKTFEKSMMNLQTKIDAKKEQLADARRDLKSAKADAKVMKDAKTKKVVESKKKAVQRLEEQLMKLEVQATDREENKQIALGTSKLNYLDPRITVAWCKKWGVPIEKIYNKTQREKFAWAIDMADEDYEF
Text: In this assay, nicked DNA is first formed by the action of the camptothecins. Addition of NaCl perturbs the equilibrium and destabilizes the camptothecin-topo I-DNA complex. The persistence of the nicked DNA under these conditions indicates increased stability of the cleavable complex.

human topI = biological target: T2, human topI (Homo sapiens, UniProt P11387); type: biochemical; settings: band of nicked DNA increases with concentration; FIG. 4
T2 sequence (P11387 1-765): T1 sequence (P11387 1-765)
Text: DNA cleavage produced by human topI in pSK DNA;
The nicked DNA migrates to position 2 on these gels.

U937 leukemia cell line = test: toxicity against U937 leukemia cell line; type: cell-based, human
Text: Untreated P388 WT (wild type) cells show dark wells where cells are viable.

Structure (SMILES) | persistence of nicked DNA / stabilization of the cleavable complex [1] | induction of nicked DNA (human topI) | time after which nicked DNA is difficult to detect [1] | IC50 (U937 leukemia cell line)
CC[C@@]1(O)C(=O)OCc2c1cc1n(c2=O)Cc2cc3cc4c(cc3nc2-1)OCO4 [MDC, 10,11-methylenedioxy-20(S)-camptothecin] | show nicked DNA for longer periods of time | induce nicked DNA | – | –
CC[C@@]1(O)C(=O)OCc2c1cc1n(c2=O)Cc2cc3ccccc3nc2-1 [CPT, camptothecin] | – | induce nicked DNA | 3 min | –
CC[C@@]1(O)C(=O)OCc2c1cc1n(c2=O)Cc2c-1nc1cc3c(cc1c2CCl)OCO3 [CMMDC, 7-chloromethyl-10,11-methylenedioxy-20(S)-camptothecin] | – | – | – | 7 nM
